Laboratory results: US20060045891A1, “Density-matched suspension vehicles and pharmaceutical suspensions” (priority 2004, published 2006)

Assay: Suspension of spheres: sphere placed in the vehicle and centrifuged
Type: physicochemical
Conditions: Lucite sphere density 1.20 g/cc; two minutes at 1000 rpm; no calcium carbonate particles
Source text: Precipitated calcium carbonate particles (density 2.71 g/cc and average particle size 0.7 microns) were mixed with Vitamin E (density 0.95 g/cc) at a particle weight fraction of 0.333 (15% by volume of dense particles) to create a suspending vehicle. According to equation (1), the density of the suspending vehicle is 1.21 g/cc.
A small Delrin sphere (density 1.35 g/cc, 3/32″ diameter) was placed in a first container holding the suspending vehicle.
A Lucite sphere (density 1.20 g/cc, 3/32″ diameter) was placed in a second container holding the suspending vehicle and centrifuged at 2000 rpm for 2 minutes.
In contrast, the Lucite sphere was placed in a third container of pure Vitamin E only and centrifuged for two minutes at 1000 rpm.

Vitamin E
behaviour of Lucite sphere in the vehicle after centrifuging: sank to the bottom of the container in less than one minute
